Earlier results as cited in US20140186466A1, “NEUTRACEUTICAL FORMULATION FOR TREATMENT OF DIABETES” (Creative Medical Health Inc., priority 2012, published 2014).
Where two headings read alike, the source gives them in different places.

Legend:
patients with diabetes [1] = details: 2000 IU/daily for 18 months
patients with diabetes [2] = details: 500 mg or 1000 mg three times a day, 52 weeks
tissue uptake of glucose = details: healthy patients and patients with type 2 diabetes
peripheral neuropathy = details: intravenously 600 mg/day over 3 weeks
[3] = system: patients with type 2 diabetes; details: 57 patients, 300 mg daily or placebo, eight weeks
type 1 diabetic patients = details: 51 type 1 diabetic patients; 600 mg once daily, 5 weeks
[4] = system: patients with hypertension; details: 60 patients with hypertension; 20 mmol/d, 8 weeks
[5] = system: streptozotocin diabetic rats; details: 10 g/l in drinking water, eight weeks
[6] = system: skin microvasculature of diabetic rats; details: streptozotocin-diabetic male Wistar rats; 10 g/l in drinking water
mesenteric vascular bed = details: STZ diabetic rats; 10 g/L in drinking water, 8 weeks; intact and denuded endothelium
[7] = in vivo
dipeptidyl peptidase-IV = dipeptidyl peptidase-IV (Homo sapiens, UniProt P27487)
diabetic rat brains = details: 0.6 mg/mL in drinking water, 4 weeks
diabetic rats [8] = details: 100 mg/kg, 60 days
[9] = system: Streptozotocin-induced diabetic animals; details: 4 weeks
HIV-positive subjects = details: 1000 µg/day, eight weeks
diabetic rats [10] = system: diabetic rats
[11] = system: inflammatory pathways involved in diabetic nephropathy; details: rat model; 22 micrograms in water for 12 weeks (8 mcg/day)
[12] = system: ischemia-reperfusion insult in rats; details: 10 mg chromium/kg diet for six weeks
[13] = diabetic rats, 1 mg/kg body weight

Chain of dipeptidyl peptidase-IV (P27487 whole entry, species assumed): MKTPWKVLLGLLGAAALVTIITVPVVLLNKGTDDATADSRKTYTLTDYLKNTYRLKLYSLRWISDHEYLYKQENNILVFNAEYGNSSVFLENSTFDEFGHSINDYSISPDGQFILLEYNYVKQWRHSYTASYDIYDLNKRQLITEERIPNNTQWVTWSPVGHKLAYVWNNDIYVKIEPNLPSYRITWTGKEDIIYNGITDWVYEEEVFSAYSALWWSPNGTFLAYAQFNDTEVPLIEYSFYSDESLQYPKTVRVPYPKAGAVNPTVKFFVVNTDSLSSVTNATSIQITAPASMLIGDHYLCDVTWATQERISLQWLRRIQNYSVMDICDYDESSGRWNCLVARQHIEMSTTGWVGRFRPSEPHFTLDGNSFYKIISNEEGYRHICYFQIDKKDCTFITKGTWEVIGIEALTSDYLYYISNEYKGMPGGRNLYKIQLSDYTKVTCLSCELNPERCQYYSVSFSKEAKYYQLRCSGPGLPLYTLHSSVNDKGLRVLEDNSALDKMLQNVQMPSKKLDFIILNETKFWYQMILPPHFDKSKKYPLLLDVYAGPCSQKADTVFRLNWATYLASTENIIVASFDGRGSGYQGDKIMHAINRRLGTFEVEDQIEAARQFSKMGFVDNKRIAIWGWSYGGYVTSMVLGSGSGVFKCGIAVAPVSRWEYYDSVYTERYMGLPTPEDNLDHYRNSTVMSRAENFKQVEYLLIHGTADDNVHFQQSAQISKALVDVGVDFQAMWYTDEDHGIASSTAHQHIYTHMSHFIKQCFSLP

For `C=C1CC[C@H](O)C/C1=C/C=C1\CCC[C@]2(C)[C@@H]([C@H](C)CCCC(C)C)CC[C@@H]12` [Vitamin D3], the serum lipid profiles (patients with diabetes [1]) is listed as “beneficial effects”.
In the case of `CC(=O)O[C@H](CC(=O)[O-])C[N+](C)(C)C` [acetyl-L-carnitine], the nerve fiber regeneration (patients with diabetes [2]) is given as “improvements”, the neuropathic pain (patients with diabetes [2]) is given as “symptomatic relief” and the “tissue uptake of glucose” value (tissue uptake of glucose) is given as “dose-dependent effects”.
In the case of `O=C(O)CCCCC1CCSS1` (stereo not drawn) [alpha lipoic acid], the neuropathic pain (peripheral neuropathy) is listed as “clinically relevant reduction”, the “fasting blood glucose levels” value [3] is listed as “reduced” and the “measures of platelet reactivity” value (type 1 diabetic patients) is listed as “reduced”.
For `[O]=[Mg]` [magnesium oxide], the “ambulatory BP reduction, first value of the pair” value [4] is listed as 2.5 mm Hg, the “ambulatory BP reduction, second value of the pair” value [4] is listed as 1.4 mm Hg and the “home BP decrease, first value of the pair” value [4] is listed as 2.0 mm Hg. The “home BP decrease, second value of the pair” value [4] was 1.4 mm Hg, the “office BP fall, first value of the pair” value [4] was 3.7 mm Hg and the “office BP fall, second value of the pair” value [4] was 1.7 mm Hg.
For `O=S(=O)([O-])[O-].[Mg+2]` [magnesium sulfate], the plasma glucose ([5]; STZ 40 mg/kg i.v. diabetic rats) is listed as “to normal levels”, the “high density lipoprotein (HDL)” value ([5]; STZ diabetic rats) is listed as “to normal levels” and the “low density lipoprotein (LDL)” value ([5]; STZ diabetic rats) is listed as “to normal levels”. For the same compound, the “mesenteric fat/body weight ratio” value ([5]; STZ diabetic rats) was “reductions”, the systolic blood pressure ([5]; STZ diabetic rats) was “to normal levels” and the total cholesterol ([5]; STZ diabetic rats) was “to normal levels”. For the same compound, the triglyceride ([5]; STZ diabetic rats) was “to normal levels”, the “very low density lipoprotein (VLDL)” value ([5]; STZ diabetic rats) was “to normal levels” and the “endothelial relaxation stimulated with acetylcholine (Ach) or sodium nitroprusside (SNP)” value [6] was “enhanced”. The “mean perfusion pressure of mesenteric vascular bed” value (mesenteric vascular bed) was “decrease”.
In the case of `CN(C)C(=N)N=C(N)N` [metformin, Metformin], the glucose utilization [7] is given as “increased”, the leptin concentrations [7] is given as “reduction” and the “dipeptidyl peptidase-IV activity” value (dipeptidyl peptidase-IV) is given as “inhibition”.
For `[Na+].[Na+].[Na+].[O]=[V]([O-])([O-])[O-]` [sodium orthovanadate], the “ischemic injury in diabetic rat brains” value (diabetic rat brains) is listed as “significantly reduced” and the neurobehavioral function (diabetic rat brains) is listed as “improved”.
For `O=S(=O)([O-])[O-].[O]=[V+2]` [vanadyl sulfate], the blood glucose levels (diabetic rats [8]) is given as “lower” and the “serum antioxidant enzyme levels in muscle tissue” value (diabetic rats [8]) is given as “decrease”.
For chromium picolinate, the plasma glucose levels ([9]; 1 mg/kg body weight daily) is given as “lowered”, the “weight loss in diabetic animals” value ([9]; 1 mg/kg body weight daily) is given as “increased” and the “glycogen content in the livers” value ([9]; 1 mg/kg body weight daily, to near control levels) is given as “normalized”. For the same compound, the action of insulin [9, 13] was “potentiate”, the plasma cholesterol levels [9, 13] was “lower” and the plasma triglyceride levels [9, 13] was “lower”. The “mean rate of glucose disposal after treatment” value (HIV-positive subjects; eight HIV-positive subjects on antiretroviral therapy, before 4.41, range 3.19-12.78, p=0.03) was 6.51 mg/kg LBM/min, the “increase of mean rate of glucose disposal” value (HIV-positive subjects; eight HIV-positive subjects) was 25% and the “elevated hepatic and cerebral free fatty acids and malondialdehyde” value (diabetic rats [10]; high dose 13.20 μg Cr kg(−1) day(−1), relative to control (non-diabetic) levels) was “nearly normalized”. For the same compound, the “elevated hepatic and cerebral free fatty acids and malondialdehyde” value (diabetic rats [10]; low (human equivalent) dose 2.90 μg Cr kg(−1) day(−1)) was “significantly reduced”, the “activity of inflammatory pathways involved in diabetic nephropathy” value [11] was “reducing the activity” and the “myocardial contractility and relaxation following ischemia-reperfusion insult” value [12] was “recovery”.
